According to publication PMC10629491 (RSC Advances, 2023):
“Also recorded” adds a separate entry of the source.

What was measured:
mushroom tyrosinase [1] = biological target: T1, mushroom tyrosinase (Agaricus bisporus, UniProt C7FF04); experiment: Enzymatic assay for tyrosinase inhibition; format: biochemical; conditions: read-out: Inhibition% ± SEM
[2] = DPPH free radical scavenging assay; conditions: 517 nm; for DPPH (%): radical scavenging, concentration not given; for EC50: read-out: EC50 (DPPH radical scavenging)
mushroom tyrosinase [3] = biological target: T1, mushroom tyrosinase; experiment: Determination of the inhibition type; format: biochemical; conditions: Lineweaver-Burk

T1 sequence (C7FF04 2-392): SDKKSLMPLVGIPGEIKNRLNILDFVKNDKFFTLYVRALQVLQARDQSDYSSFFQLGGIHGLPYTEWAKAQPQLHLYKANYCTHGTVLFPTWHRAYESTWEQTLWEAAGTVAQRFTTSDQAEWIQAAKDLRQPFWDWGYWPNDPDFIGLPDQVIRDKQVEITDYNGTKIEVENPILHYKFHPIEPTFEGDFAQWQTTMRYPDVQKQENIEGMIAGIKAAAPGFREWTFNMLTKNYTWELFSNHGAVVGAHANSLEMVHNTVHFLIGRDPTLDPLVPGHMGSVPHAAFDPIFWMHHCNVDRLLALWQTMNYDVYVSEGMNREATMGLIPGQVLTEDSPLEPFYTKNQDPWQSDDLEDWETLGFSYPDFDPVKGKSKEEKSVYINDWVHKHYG

inhibition at 50 µM (mushroom tyrosinase [1])	EC50 [2]	Km value with increasing inhibitor concentration (mushroom tyrosinase [3]; L-Dopa)	Vmax with increasing inhibitor concentration (mushroom tyrosinase [3]; L-Dopa)	SMILES	DPPH (%) [2]	inhibition type (mushroom tyrosinase [3]; inhibitor 0, 12.64, 25.29, 50.58 μM, L-Dopa 0.5-10.0 mM)
46.1 ± 8.21%	32 ± 10 µM			Cc1c(O)c(=O)ccn1-c1cccc(C(=O)NN=Cc2ccccc2[N+](=O)[O-])c1 [6a, 3-(3-hydroxy-2-methyl-4-oxopyridin-1(4H)-yl)-N′-(2-nitrobenzylidene)benzohydrazide]	77.15%	
43.1 ± 3.41%	12 µM			Cc1c(O)c(=O)ccn1-c1cccc(C(=O)NN=Cc2ccc(F)cc2)c1 [6b, 3-(3-hydroxy-2-methyl-4-oxopyridin-1(4H)-yl)-N′-(4-fluorobenzylidene)benzohydrazide]	71.42%	
30.8 ± 2.85%	216 ± 80 µM			Cc1c(O)c(=O)ccn1-c1cccc(C(=O)NN=Cc2ccc(C#N)cc2)c1 [6c, 3-(3-hydroxy-2-methyl-4-oxopyridin-1(4H)-yl)-N′-(4-cyanobenzylidene)benzohydrazide]	43.67%	
49 ± 7.51%	369 ± 10 µM			Cc1ccc(C=NNC(=O)c2cccc(-n3ccc(=O)c(O)c3C)c2)cc1 [6d, 3-(3-hydroxy-2-methyl-4-oxopyridin-1(4H)-yl)-N′-(4-methylbenzylidene)benzohydrazide]	39.13%	
41.7 ± 4.07%	14 ± 10 µM			Cc1c(O)c(=O)ccn1-c1cccc(C(=O)NN=Cc2ccc(C(C)C)cc2)c1 [6e, 3-(3-hydroxy-2-methyl-4-oxopyridin-1(4H)-yl)-N′-(4-isopropylbenzylidene)benzohydrazide]	61.44%	
34.8 ± 3.83%	168 ± 30 µM			COc1cccc(C=NNC(=O)c2cccc(-n3ccc(=O)c(O)c3C)c2)c1[N+](=O)[O-] [6f, 3-(3-hydroxy-2-methyl-4-oxopyridine-1(4H)-yl)-N′-(3-methoxy-2-nitrobenzylidene)benzohydrazide]	43.67%	
28.1 ± 3.97%	191 ± 70 µM			Cc1c(O)c(=O)ccn1-c1cccc(C(=O)NN=Cc2ccc(Cl)cc2Cl)c1 [6g, 3-(3-hydroxy-2-methyl-4-oxopyridin-1(4H)-yl)-N′-(2,4-dichlorobenzylidene)benzohydrazide]	39.11%	
11.4 ± 2.59%	> 400 µM			Cc1c(O)c(=O)ccn1-c1cccc(C(=O)NN=Cc2cc([N+](=O)[O-])ccc2Cl)c1 [6h, 3-(3-hydroxy-2-methyl-4-oxopyridin-1(4H)-yl)-N′-(2-chloro-5-nitrobenzylidene)benzohydrazide]	31.91%	
49.6 ± 12.6%	185 ± 130 µM	increased	not affected	Cc1c(O)c(=O)ccn1-c1cccc(C(=O)NN=Cc2cc(Br)ccc2O)c1 [6i, 3-(3-hydroxy-2-methyl-4-oxopyridin-1(4H)-yl)-N′-(5-bromo-2-hydroxybenzylidene)benzohydrazide]	42.64%	competitive inhibitor; also recorded: competitive type of inhibition
40.4 ± 5%	383 ± 120 µM			Cc1c(O)c(=O)ccn1-c1cccc(C(=O)NN=Cc2ccc([N+](=O)[O-])s2)c1 [6j, 3-(3-hydroxy-2-methyl-4-oxopyridin-1(4H)-yl)-N'-((5-nitrothiophen-2-yl)methylene)benzohydrazide]	42.74%	
	8.9 µM			O=c1c(O)c(-c2ccc(O)c(O)c2)oc2cc(O)cc(O)c12 [Quercetin, reference compound]	74.33%	
